This note sets out measurements from patent publication US20110082130A1 (LIGAND PHARMACEUTICALS, INC., priority 2006, published 2011).

The structures appear in SMILES notation.

By Ki is commonly meant the equilibrium dissociation constant of an inhibitor or competing ligand from its target.

The first experiment deals with T1, chimeric human H3 receptor (Homo sapiens, UniProt Q9Y5N1).
T1 construct: made in house; host or cells: Sf9 insect cells (baculovirus); P2 membrane preparation
T1 sequence (Q9Y5N1 with tags, fused parts or gaps): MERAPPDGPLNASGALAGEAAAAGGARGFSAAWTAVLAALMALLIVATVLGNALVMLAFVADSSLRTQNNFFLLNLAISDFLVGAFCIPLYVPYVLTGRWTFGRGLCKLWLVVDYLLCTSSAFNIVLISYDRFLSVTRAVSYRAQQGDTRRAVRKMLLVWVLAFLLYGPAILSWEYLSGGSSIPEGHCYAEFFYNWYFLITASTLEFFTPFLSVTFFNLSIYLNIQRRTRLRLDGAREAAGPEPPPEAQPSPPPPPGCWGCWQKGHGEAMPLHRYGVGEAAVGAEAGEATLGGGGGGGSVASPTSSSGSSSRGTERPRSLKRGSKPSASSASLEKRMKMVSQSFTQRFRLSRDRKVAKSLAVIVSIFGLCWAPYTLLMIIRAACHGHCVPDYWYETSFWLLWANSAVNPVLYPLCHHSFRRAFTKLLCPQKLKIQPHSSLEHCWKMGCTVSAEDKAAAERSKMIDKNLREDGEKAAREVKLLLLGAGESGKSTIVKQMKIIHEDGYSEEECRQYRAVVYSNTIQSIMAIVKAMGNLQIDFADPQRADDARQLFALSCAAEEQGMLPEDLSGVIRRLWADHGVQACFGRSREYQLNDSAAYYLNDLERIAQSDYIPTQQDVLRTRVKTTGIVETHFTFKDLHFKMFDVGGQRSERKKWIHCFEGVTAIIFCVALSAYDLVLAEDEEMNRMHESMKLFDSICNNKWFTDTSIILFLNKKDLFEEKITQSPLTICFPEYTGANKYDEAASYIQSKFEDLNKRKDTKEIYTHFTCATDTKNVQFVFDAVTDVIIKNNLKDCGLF
Kind of experiment: Chimeric human H3 receptor GTP binding assay (agonist-stimulated GTP-gamma35S binding, Example 7). The class given is biochemical. As to conditions: Table I; P2 membranes of Sf9 cells, 1 μM histamine as agonist, Ki from IC50 by Cheng-Prusoff. The method in brief: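 Sf9 membranes co-expressing chimeric human H3 receptor and heterotrimeric G-protein, 35 μg/tube, in pH 7.4 Tris buffer with 10 μM GDP. Test compounds (10^−10–10^−6 M) competed against 1 μM histamine, […] GTP-gamma35S, 60 min at room temperature. Filter-bound radioactivity counted; IC50 converted to Ki by Cheng-Prusoff. Agonism/inverse agonism tested without histamine (EC50).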
Background: GTPγS is a poorly hydrolysed GTP analogue; its binding reports G protein activation.
`O=C(CN1CCc2cncnc2CC1)N1CCN(C2CCC2)CC1` [Compound 80, 7-[2-(4-cyclobutylpiperazin-1-yl)-2-oxoethyl]-6,7,8,9-tetrahydro-5H-pyrimido[4,5-d]azepine]: the Ki is less than 1000 nM.

The same experiment, now with this note: Table II "Ki", symbol *; assay of Example 7.
Regarding `O=C(CN1CCc2nc(NCC3CCCCC3)ccc2C1)N1CCN(C2CCC2)CC1` [Compound 659, 6-[2-(4-cyclobutylpiperazin-1-yl)-2-oxoethyl]-N-(cyclohexylmethyl)-5,6,7,8-tetrahydro-1,6-naphthyridin-2-amine], the inhibition constant (Ki) was less than 1000 nM.

Turning to `CN(C)Cc1cccc(-c2ccc3c(c2)CCN(CC(=O)N2CCN(C4CCC4)CC2)C3)c1` [Compound 641, 1-(3-{2-[2-(4-cyclobutylpiperazin-1-yl)-2-oxoethyl]-1,2,3,4-tetrahydroisoquinolin-6-yl}phenyl)-N,N-dimethylmethanamine], the Ki was less than 1000 nM.

Regarding `COc1ccc(-c2ccc3c(c2)CCN(CC(=O)N2CCN(C4CCC4)CC2)C3)cc1` [Compound 520, 2-[2-(4-cyclobutylpiperazin-1-yl)-2-oxoethyl]-6-(4-methoxyphenyl)-1,2,3,4-tetrahydroisoquinoline], the Ki is less than 1000 nM.

Still in this experiment, the particulars now being: Table II; "*" = Ki in assay of Example 7 less than 1 micromolar.
In the case of `O=C(CN1CCc2sccc2C1)N1CCN(C2CCC2)CC1` [Compound 265, 5-[2-(4-cyclobutylpiperazin-1-yl)-2-oxoethyl]-4,5,6,7-tetrahydrothieno[3,2-c]pyridine], the Ki was less than 1000 nM.

Consider `O=C(CN1CCc2nc(-n3cccc3)ccc2C1)N1CCN(C2CCC2)CC1` [Compound 227, 6-[2-(4-cyclobutylpiperazin-1-yl)-2-oxoethyl]-2-(1H-pyrrol-1-yl)-5,6,7,8-tetrahydro-1,6-naphthyridine], for which the Ki is less than 1000 nM.

Consider `COC(=O)c1ccc(-c2nc3c(s2)CN(CC(=O)N2CCN(C4CCC4)CC2)CC3)cc1` [Compound 100, methyl 4-{5-[2-(4-cyclobutylpiperazin-1-yl)-2-oxoethyl]-4,5,6,7-tetrahydro[1,3]thiazolo [5,4-c]pyridin-2-yl}benzoate], for which the Ki is less than 1000 nM.

As to `O=C(CN1CCc2nc(-c3ccncc3)ncc2C1)N1CCN(C2CCCC2)CC1` [Compound 138, 6-[2-(4-cyclopentylpiperazin-1-yl)-2-oxoethyl]-2-pyridin-4-yl-5,6,7,8-tetrahydropyrido[4,3-d]pyrimidine], the Ki is less than 1000 nM.

On to `N#Cc1cncc(-n2cc3c(n2)CCN(CC(=O)N2CCN(C4CCC4)CC2)C3)n1` [Compound 271, 6-{5-[2-(4-cyclobutylpiperazin-1-yl)-2-oxoethyl]-4,5,6,7-tetrahydro-2H-pyrazolo[4,3-c]pyridin-2-yl}pyrazine-2-carbonitrile], for which the Ki was less than 1000 nM.

For the molecule `O=C(CN1CCc2cc(-n3cccn3)ccc2C1)N1CCN2CCCCC2C1` (stereo not shown) [Compound 153, 2-{[6-(1H-pyrazol-1-yl)-3,4-dihydroisoquinolin-2(1H)-yl]acetyl}octahydro-2H-pyrido[1,2-a]pyrazine], the Ki was less than 1000 nM.

The experiment is the same for the next values; noted with them: assay of Example 7; "*" in Ki of Table II.
In the case of `O=C(CN1CCc2nc(-c3ccccc3F)sc2C1)N1CCN(C2CCC2)CC1` [Compound 299, 5-[2-(4-cyclobutylpiperazin-1-yl)-2-oxoethyl]-2-(2-fluorophenyl)-4,5,6,7-tetrahydro[1,3]thiazolo [5,4-c]pyridine], the Ki was less than 1000 nM.

As to `COc1ccc(OC)c(-c2nc3c(s2)CN(CC(=O)N2CCN(C4CCC4)CC2)CC3)c1` [Compound 339, 5-[2-(4-cyclobutylpiperazin-1-yl)-2-oxoethyl]-2-(2,5-dimethoxyphenyl)-4,5,6,7-tetrahydro[1,3]thiazolo [5,4-c]pyridine], the Ki is less than 1000 nM.

On to `O=C(CN1CCc2nn(-c3ncc(Br)cn3)cc2C1)N1CCN(C2CCC2)CC1` [Compound 287, 2-(5-bromopyrimidin-2-yl)-5-[2-(4-cyclobutylpiperazin-1-yl)-2-oxoethyl]-4,5,6,7-tetrahydro-2H-pyrazolo[4,3-c]pyridine], for which the Ki is less than 1000 nM.
